The subject of one data set is normal lymphocytes. Description: Oxidative stress (GSH/GSSG levels). The settings on record: for GSH / GSH/GSSG / GSSG: 24 hours. In kind it is cell-based, human. How it is done:
Oxidative stress (GSH/GSSG levels). The measure of the reduced (GSH) as well as oxidized (GSSG) levels of glutathione and their ratio are useful indicators for oxidative stress. The levels of GSH and GSSG were assayed by a colorimetric method using Biotech GSH/GSSG-412 kit (Oxis Research, Portland, Oreg.) according to manufacturer's protocol. Briefly, normal blood samples from healthy donors were incubated with different concentrations of RR1 for 24 hours in a 5% CO2 incubator at 37° C. For GSSG, 100 μl of each of the treated sample was frozen at −70° C. for 4 hours, thawed and added 290 μl of 5% meta phosphoric acid (MPA). The samples were vortexed for 15-20 seconds and centrifuged at 1000×g for 10 minutes. MPA extract (50 μl) was added to 700 μl of GSSG buffer that was used for the calorimetric assay. For GSH measurement 50 μl of the whole blood was frozen at −70° C., thawed and added 350 μl of 5% MPA, vortexed for 15-20 seconds and centrifuged at 10,000×g for 10 minutes. MPA extract (50 μl) was added to 3 ml of the assay buffer and used for further analysis. MPA buffer mixture (200 μl) of each standard and sample was transferred to a spectrophotometer cuvette, added 200 μl of chromogen followed by 200 μl of enzyme in the order and incubated at room temperature for 5 minutes. Afterwards, 200 μl of NADPH was added into the cuvette and changes in the absorbance at 412 nm were recorded in a BECKMAN spectrophotometer. The reaction rates were plotted using the absorbance values and the levels of GSH and GSSG were determined.

A further data set concerns RAW 264.7 cells. Description: RR1-induced TNF-α synthesis with and without CAPE, ELISA. In kind it is cell-based, mouse. Conditions: RAW 264.7, RR1 0-1000 μg/ml. As for the experimental part:
The cells were pre-incubated with 10 μg/ml CAPE for 1 hour in 0.5% FBS containing DMEM medium and replaced with medium containing RR1 at varying concentrations for 4 hour at 37° C. The medium was analyzed for secreted TNF-α using ELISA protocol.
RR1-induced TNF-α synthesis. RAW 264.7 cells (0.5×10^6/ml) were plated on 6-well plates with DMEM medium containing 0.5% FBS (starvation). Once the cells were attached, medium was replaced, RR1 was added at 0, 100, 500 and 1000 μg/ml doses and incubated at 37° C. for 24 hours. The medium was analyzed for the secreted TNF-α using the ELISA kit (BD BIOSCIENCES kit, San Jose, Calif.) based on the manufacturer's protocol.
To determine the effect of NF-κB inhibitor CAPE on TNF-α synthesis, RAW 264.7 cells were treated with 10 μg/ml of CAPE for 1 hour at 37° C. followed by treatment with RR1 (0-1000 μg/ml) overnight in the incubator. The secreted TNF-α in the medium was analyzed using ELISA (BD BIOSCIENCES, San Jose, Calif.).

In data set [1] the test system is normal lymphocytes (NK, T and B cells). Description: Activation of lymphocyte subsets, flow cytometry (CD69). In kind it is cell-based, human. How it is done: Normal lymphocytes were treated with RR1 (0-100 μg/ml) for 24 hours at 37° C. in a CO2 incubator. The cells were stained with a panel of cell specific antibodies conjugated with different fluorochromes: CD3-FITC, CD16/56-PE, CD19-ECD, CD69-PC5 or CD8-FITC, CD4-PE, CD3-ECD, CD69-ECD. The stained cells were analyzed in a Coulter Elite flow cytometer in a 4-color assay. ***p<0.001.
Activation of Lymphocytes. Normal lymphocytes (10^6/ml) were treated with 0-100 μg of RR1 for 24 hours in a CO2 incubator maintained at 37° C. in RPMI medium. The cells were then stained with specific fluorochrome-conjugated monoclonal antibodies for 30 minutes at room temperature and analyzed in a Coulter Elite Flow Cytometer by four and five color immunotyping assay protocol of Alamo and Melnick (Alamo, A. L. and S. J. Melnick Cytometry, 2000, 42:363-370) and the percentage of activation of subsets of lymphocytes such as NK, T and B cells were calculated.
Background: A flow cytometer gives signals particle by particle.

For data set [2], the system named is human leukemic cells (CEM). Description: Cytotoxicity of RR1 treated lymphocytes (functional assay, active caspase-3). In kind it is cell-based. The settings on record: RR1 0-100 μg/ml, 24 hours, then co-incubation with CEM. How it is done:
Normal lymphocytes were treated with RR1 (0-100 μg/ml) for 24 hours in RPMI medium. The cells were washed and co-incubated with PKH26-labeled human leukemic CEM cells for 12 hours for the active NK cells to lyse the tumor cells. The cell mixtures were stained with FITC-labeled and activated caspase-3 monoclonal antibody. The percentage of PKH26+ and Caspase-3+ cells were quantified by analyzing in a Beckman-Coulter Elite flow cytometer (**p=0.01).
Cytotoxicity of RR1 treated lymphocytes. To evaluate the enhanced cytotoxicity of activated lymphocytes, a functional assay was adopted using RR1-activated lymphocytes as effecter cells and human leukemic cells (CEM) as targets (Liu, L. et al. Nat. Med., 2002, 8:185-189; Jerome, K. R. et al. Nat. Med., 2003, 9:4-5). Briefly, normal lymphocytes (10^6/ml) were treated with different concentrations of RR1 in RPMI medium for 24 hours in a CO2 incubator at 37° C. […] The percentage of cells killed by the activated NK cells was determined by fixing the mixture with 1 ml of 2% paraformaldehyde solution for 30 minutes on ice followed by suspending in 0.5% Tween 20 in PBS. The cell mixture was stained with 7.5 μl of anti-active caspase-3-FITC antibody (BD Biosciences, CA) for 30 minutes at room temperature, washed with PBS and analyzed in a Coulter Elite Flow Cytometer.

From US7425548B2, “Materials and methods for immune system stimulation” (Variety Chidren's Hospital, priority 2004, dated 2008) come the findings set out here.

In the data set with normal lymphocytes (RR1 5 μg/ml), (1,4)-α-D-glucan [RR1] had a GSH of 365.08 ± 3.81 µM, a GSH/GSSG of 14.05 ± 0.41 and a GSSG of 22.77 ± 0.58 µM. In the data set on normal lymphocytes (RR1 10 μg/ml), this substance returned a GSH of 366.10 ± 0.97 µM, a GSH/GSSG of 14.34 ± 0.35 and a GSSG of 22.67 ± 0.41 µM. Besides, in the data set on normal lymphocytes (RR1 50 μg/ml), the GSH came to 364.43 ± 0.10 µM, the GSH/GSSG was found to be 14.25 ± 0.40 and the GSSG is 22.75 ± 0.55 µM. In addition, the “oxidative stress in lymphocytes” value in the data set with normal lymphocytes (indicated by GSH, GSSG and their ratio) is “does not produce any oxidative stress”. In addition, the “synthesis of TNF-α” value in the data set with RAW 264.7 cells is listed as “dose-dependent increase”. The “fold activation of NK cells” value in data set [1] (100 μg/ml RR1) is > 3 fold. Besides, in data set [1] (100 μg/ml RR1, 24 hours), the “activation of B cells” value stood at 39%, the “activation of NK cells” value came out at 331% and the “activation of T cells” value is reported as 102%. Also, the “killing of tumor cells by RR1-treated normal lymphocytes” value in data set [2] is reported as “dose-dependent enhancement of cytotoxicity”.
